Structures are written as SMILES.

These results are taken from PMC11167047 (Cell Death Discovery, 2024).

Holding throughout (assay): kinome screen (33PanQinase)
What all share (type): biochemical

In assay [1] the target is T1, RIPK5 (Homo sapiens, UniProt Q6XUX3).
T1 construct: purchased Reaction Biology Europe GmbH (formerly ProQinase)
T1 sequence (Q6XUX3 1-929): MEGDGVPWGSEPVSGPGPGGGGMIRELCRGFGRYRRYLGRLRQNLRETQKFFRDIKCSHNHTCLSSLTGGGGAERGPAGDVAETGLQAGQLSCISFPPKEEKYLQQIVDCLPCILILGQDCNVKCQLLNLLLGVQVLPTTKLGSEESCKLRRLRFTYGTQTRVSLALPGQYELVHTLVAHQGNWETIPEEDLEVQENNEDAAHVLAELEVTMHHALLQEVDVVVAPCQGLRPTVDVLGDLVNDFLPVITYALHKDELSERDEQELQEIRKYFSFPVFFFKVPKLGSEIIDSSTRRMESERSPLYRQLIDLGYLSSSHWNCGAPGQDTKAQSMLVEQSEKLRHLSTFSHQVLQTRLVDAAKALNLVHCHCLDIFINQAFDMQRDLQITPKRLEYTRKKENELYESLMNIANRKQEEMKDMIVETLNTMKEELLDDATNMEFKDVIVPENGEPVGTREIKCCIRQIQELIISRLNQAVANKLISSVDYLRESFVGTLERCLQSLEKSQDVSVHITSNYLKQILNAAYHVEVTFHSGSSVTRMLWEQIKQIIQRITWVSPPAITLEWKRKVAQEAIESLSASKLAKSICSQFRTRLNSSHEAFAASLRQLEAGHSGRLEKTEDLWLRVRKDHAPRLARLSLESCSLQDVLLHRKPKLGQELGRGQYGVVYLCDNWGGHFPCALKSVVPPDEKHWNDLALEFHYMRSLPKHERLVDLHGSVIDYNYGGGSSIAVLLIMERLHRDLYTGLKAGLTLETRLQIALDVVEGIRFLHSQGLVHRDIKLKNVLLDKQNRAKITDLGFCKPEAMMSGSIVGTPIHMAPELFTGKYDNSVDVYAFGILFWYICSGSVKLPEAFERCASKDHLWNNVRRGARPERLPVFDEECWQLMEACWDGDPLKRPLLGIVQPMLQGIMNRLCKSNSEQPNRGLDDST
As for the experimental part: (§1) The Kinome Screening was performed by Reaction Biology Europe GmbH (http://reactionbiology.com; Freiburg i. Br., Germany).

For assay [2], the target named is T2, MARK2 (Homo sapiens, UniProt Q7KZI7).
T2 construct: purchased Reaction Biology Europe GmbH (formerly ProQinase)
How it is done: as §1

For assay [3], the target named is T3, CDK20/CycH (Homo sapiens, UniProt Q8IZL9).
T3 construct: purchased Reaction Biology Europe GmbH (formerly ProQinase)
How it is done:
as §1

The target in assay [4] is T4, PKCγ (Homo sapiens, UniProt P05129).
T4 construct: purchased Reaction Biology Europe GmbH (formerly ProQinase)
As for the experimental part:
as §1

For assay [5], the target named is T5, CAMK4 (Homo sapiens, UniProt Q16566).
T5 construct: purchased Reaction Biology Europe GmbH (formerly ProQinase)
T5 sequence (Q16566 1-473): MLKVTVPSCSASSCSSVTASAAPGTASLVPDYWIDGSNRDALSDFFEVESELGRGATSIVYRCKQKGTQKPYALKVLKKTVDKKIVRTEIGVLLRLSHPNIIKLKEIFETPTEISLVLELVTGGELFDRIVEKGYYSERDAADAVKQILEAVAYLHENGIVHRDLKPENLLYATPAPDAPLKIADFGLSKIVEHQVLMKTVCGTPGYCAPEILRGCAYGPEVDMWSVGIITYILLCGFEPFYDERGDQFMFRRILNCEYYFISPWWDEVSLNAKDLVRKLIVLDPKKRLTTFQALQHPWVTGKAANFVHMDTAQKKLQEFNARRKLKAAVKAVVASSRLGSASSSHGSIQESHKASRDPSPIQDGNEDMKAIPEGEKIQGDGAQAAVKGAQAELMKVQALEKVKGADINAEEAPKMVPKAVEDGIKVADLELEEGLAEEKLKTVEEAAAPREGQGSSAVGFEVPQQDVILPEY
As for the experimental part: as §1

Assay [6] addresses T6, FLT3 (Homo sapiens, UniProt P36888).
T6 construct: purchased Reaction Biology Europe GmbH (formerly ProQinase)
T6 sequence (P36888 27-993): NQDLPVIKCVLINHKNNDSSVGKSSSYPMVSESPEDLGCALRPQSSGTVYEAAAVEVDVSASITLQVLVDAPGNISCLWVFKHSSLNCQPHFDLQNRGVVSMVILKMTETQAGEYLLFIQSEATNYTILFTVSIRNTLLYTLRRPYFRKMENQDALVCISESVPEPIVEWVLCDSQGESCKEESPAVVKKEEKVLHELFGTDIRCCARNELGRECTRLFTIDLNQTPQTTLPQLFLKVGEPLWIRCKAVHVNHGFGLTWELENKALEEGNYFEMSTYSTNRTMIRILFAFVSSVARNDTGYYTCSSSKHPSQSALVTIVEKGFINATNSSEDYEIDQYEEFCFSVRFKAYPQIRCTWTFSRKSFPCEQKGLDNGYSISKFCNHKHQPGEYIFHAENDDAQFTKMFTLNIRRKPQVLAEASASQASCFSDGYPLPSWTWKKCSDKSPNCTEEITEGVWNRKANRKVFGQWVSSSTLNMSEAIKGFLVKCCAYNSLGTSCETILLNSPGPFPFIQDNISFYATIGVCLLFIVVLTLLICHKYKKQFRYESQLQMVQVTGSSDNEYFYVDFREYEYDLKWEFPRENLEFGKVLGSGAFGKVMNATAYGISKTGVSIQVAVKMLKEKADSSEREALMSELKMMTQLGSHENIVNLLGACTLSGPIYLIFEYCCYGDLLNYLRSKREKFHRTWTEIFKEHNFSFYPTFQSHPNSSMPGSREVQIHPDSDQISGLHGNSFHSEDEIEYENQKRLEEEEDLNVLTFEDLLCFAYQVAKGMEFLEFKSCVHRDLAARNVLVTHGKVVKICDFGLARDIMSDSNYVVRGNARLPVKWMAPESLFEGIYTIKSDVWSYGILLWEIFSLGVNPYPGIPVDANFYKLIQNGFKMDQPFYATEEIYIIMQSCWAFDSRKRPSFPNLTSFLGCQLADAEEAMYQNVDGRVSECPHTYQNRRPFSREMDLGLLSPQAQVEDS
How it is done: as §1

T3 sequence (Q8IZL9 whole entry): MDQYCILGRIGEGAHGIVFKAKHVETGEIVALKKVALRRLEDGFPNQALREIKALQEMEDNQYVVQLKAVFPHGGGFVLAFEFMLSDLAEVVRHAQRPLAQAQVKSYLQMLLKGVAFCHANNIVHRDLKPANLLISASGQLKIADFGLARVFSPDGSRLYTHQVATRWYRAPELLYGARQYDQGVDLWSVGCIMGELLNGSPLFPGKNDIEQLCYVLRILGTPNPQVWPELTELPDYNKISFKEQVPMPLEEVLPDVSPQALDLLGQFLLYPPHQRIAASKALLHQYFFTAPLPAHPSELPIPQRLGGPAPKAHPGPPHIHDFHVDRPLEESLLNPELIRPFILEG
T3 sequence (P51946 whole entry partner): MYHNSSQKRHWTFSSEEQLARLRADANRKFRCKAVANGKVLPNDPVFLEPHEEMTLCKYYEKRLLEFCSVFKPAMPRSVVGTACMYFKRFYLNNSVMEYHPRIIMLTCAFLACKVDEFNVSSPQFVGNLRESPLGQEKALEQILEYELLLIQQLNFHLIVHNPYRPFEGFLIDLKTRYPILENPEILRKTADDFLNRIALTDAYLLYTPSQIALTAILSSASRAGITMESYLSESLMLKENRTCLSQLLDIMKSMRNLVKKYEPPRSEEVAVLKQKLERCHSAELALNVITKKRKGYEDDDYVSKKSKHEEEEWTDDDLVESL
T2 sequence (Q7KZI7 whole entry): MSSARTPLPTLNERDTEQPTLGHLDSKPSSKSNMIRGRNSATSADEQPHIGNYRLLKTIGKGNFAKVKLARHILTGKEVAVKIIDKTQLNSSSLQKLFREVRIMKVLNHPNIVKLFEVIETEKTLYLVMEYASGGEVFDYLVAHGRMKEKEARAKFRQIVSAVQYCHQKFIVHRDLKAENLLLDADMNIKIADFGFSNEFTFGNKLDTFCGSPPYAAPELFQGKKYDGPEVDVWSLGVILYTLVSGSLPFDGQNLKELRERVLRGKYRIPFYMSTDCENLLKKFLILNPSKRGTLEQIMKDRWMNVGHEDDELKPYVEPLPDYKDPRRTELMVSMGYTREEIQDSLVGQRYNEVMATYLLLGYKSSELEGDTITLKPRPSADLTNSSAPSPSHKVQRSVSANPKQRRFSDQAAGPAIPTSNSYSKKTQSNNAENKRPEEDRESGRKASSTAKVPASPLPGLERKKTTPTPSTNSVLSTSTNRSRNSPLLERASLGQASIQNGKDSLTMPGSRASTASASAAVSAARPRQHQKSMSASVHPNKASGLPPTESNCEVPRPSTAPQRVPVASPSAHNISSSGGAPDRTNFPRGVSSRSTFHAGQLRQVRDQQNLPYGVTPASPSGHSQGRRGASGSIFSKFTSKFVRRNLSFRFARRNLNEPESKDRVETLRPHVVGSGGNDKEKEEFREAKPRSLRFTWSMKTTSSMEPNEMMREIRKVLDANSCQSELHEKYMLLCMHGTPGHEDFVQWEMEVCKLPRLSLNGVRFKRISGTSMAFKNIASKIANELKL

As for `COc1ccnc2[nH]cc(-c3cc(N)nc(N)c3)c12` [meriolin 16], the residual kinase activity in assay [1] (0.03 µM) is given as 101 % of control; in assay [1] (0.3 µM), 86 % of control; in assay [2] (0.03 µM), 91 % of control; in assay [2] (0.3 µM), 88 % of control; in assay [3] (0.03 µM), 38 % of control; in assay [3] (0.3 µM), 33 % of control. Also, the residual kinase activity is given as 99 % of control in assay [4] (0.03 µM); 54 % of control in assay [4] (0.3 µM); 96 % of control in assay [5] (0.03 µM); 92 % of control in assay [5] (0.3 µM); 49 % of control in assay [6] (0.03 µM); 21 % of control in assay [6] (0.3 µM).
Take `c1ccc(CNc2cc(-c3c[nH]c4ncccc34)ccn2)cc1` [meriolin 36]: the residual kinase activity in assay [1] (0.3 µM) was 58 % of control; in assay [1] (3 µM), 16 % of control; in assay [2] (0.3 µM), 98 % of control; in assay [2] (3 µM) it was 63 % of control; in assay [3] (0.3 µM), 29 % of control; in assay [3] (3 µM), 13 % of control. The residual kinase activity in assay [4] (0.3 µM) was 33 % of control; in assay [4] (3 µM), 5 % of control; in assay [5] (0.3 µM) it was 92 % of control; in assay [5] (3 µM) it was 73 % of control; in assay [6] (0.3 µM) it was 9 % of control; in assay [6] (3 µM), 2 % of control.
